Active and inactive are the calls of the source.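 The calls were made as follows: active = tumour findings in long-term animal cancer tests in more than one sex, species or organ; inactive = no tumour finding and more than one negative test.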

The series is described as follows: DSSTox (CPDBAS) Carcinogenic Potency Database Summary MultiCellCall Results. The conditions noted are these: animal carcinogenicity bioassays, multi-cell call summary. The essentials: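 ActivityScore sums 50 for multispecies, 30 for multisex and 20 for multisite positivity. Based on the most positive experiment per sex-species across standardised chronic rodent and other animal cancer tests.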
For `C/C=C/C(=O)Oc1c(C(C)CCCCCC)cc([N+](=O)[O-])cc1[N+](=O)[O-]` (stereo unspecified), the outcome is “inactive; multisex inactive”.
Then `C[N+](C)(C)CCO`, with “inactive; multispecies inactive”; and `C=C(C)[C@H]1Cc2c(ccc3c2O[C@@H]2COc4cc(OC)c(OC)cc4[C@@H]2C3=O)O1`, with “inactive; multisex inactive; multispecies inactive”; and `NNC(=O)c1cccnc1`, with “active; multisex active”.
Then `CC(=O)Nc1ccc(OCC(O)CNC(C)C)cc1` (stereo unspecified), with “inactive; multisex inactive; multispecies inactive”; and `CC(=O)Nc1ccc2c(c1)Cc1cc(NC(C)=O)ccc1-2`, with “inactive; multispecies inactive”.
Then `Cc1ccccc1N`, with “active; multisite active; multisex active; multispecies active”; and `CNCCC(Oc1ccc(C(F)(F)F)cc1)c1ccccc1` (stereo unspecified), with “inactive; multisex inactive; multispecies inactive”; and `Clc1ccc(Sc2cc(Cl)c(Cl)cc2Cl)cc1`, with “inactive; multisex inactive”.
For the molecule `N[C@@H](CC(=O)O)C(=O)O`, the outcome was “inactive; multisex inactive”.
For the molecule `CN(N=O)C(=O)N[C@@H]1[C@@H](O)[C@H](O)[C@@H](CO)O[C@@H]1O`, the outcome is “active; multisite active; multisex active; multispecies active”.
Consider `O=NN(CCO)C(=O)NCCCl`, for which the outcome was “active; multisite active; multisex active”.
The result for `CC[C@H]1OC(=O)[C@H](C)[C@@H](O[C@H]2C[C@@](C)(OC)[C@@H](O)[C@H](C)O2)[C@H](C)[C@@H](O[C@@H]2O[C@H](C)C[C@H](N(C)C)[C@H]2O)[C@](C)(O)C[C@@H](C)C(=O)[C@H](C)[C@@H](O)[C@]1(C)O` reads “inactive; multisex inactive; multispecies inactive”; that for `COc1ccc([C@@H]2CC(=O)c3c(O)cc(O[C@@H]4O[C@H](CO[C@@H]5O[C@@H](C)[C@H](O)[C@@H](O)[C@H]5O)[C@@H](O)[C@H](O)[C@H]4O)cc3O2)cc1OC`, “inactive; multisex inactive”; that for `CN[C@@H](C)[C@H](O)c1ccccc1`, “inactive; multisex inactive; multispecies inactive”.
Then `CC(O)C(=O)O` (stereo unspecified), with “inactive; multisex inactive”.
With `CC(=O)CN(N=O)C(=O)NCCCl`, the outcome was “active; multisex active”.
Take `C=C1C(CCl)(CCl)C2(Cl)C(Cl)C(Cl)C1(Cl)C2(Cl)Cl` (stereo unspecified): the outcome is “active; multisex active”.
Regarding `CN(CCc1ccccc1)N=O`, the outcome is “active; multisite active”.
Then `O=C(Nc1ccc([N+](=O)[O-])cc1Cl)c1cc(Cl)ccc1O`, with “inactive; multisex inactive; multispecies inactive”; and `O=NO`, with “active; multisite active; multisex active”; and `Cc1cc(O)c(C(C)(C)C)cc1Sc1cc(C(C)(C)C)c(O)cc1C`, with “inactive; multisex inactive; multispecies inactive”.
Then `C[C@H]1CCCC(=O)CCC/C=C/c2cc(O)cc(O)c2C(=O)O1`, with “active; multisite active; multisex active”; and `CCCCCCN(N=O)C(N)=O`, with “active; multisite active; multisex active”; and `O=C(CCl)c1ccccc1`, with “inactive; multisex inactive; multispecies inactive”.
In the case of `Cc1cc(N)ccc1N`, the outcome was “inactive; multisex inactive; multispecies inactive”.
The result for `O=C(C1CCCCC1)N1CC(=O)N2CCc3ccccc3C2C1` (stereo unspecified) reads “inactive; multisex inactive; multispecies inactive”; that for `CC(=O)N(O)c1ccc2c(c1)Cc1ccccc1-2`, “active; multisite active; multisex active; multispecies active”.
Then `CCCCN(CC)C(=O)SCCC`, with “inactive; multisex inactive”; and `CS(=O)(=O)c1ccc([C@@H](O)[C@@H](CO)NC(=O)C(Cl)Cl)cc1`, with “inactive; multisex inactive”.
Then `CN=C(NC#N)NCCSCc1nc[nH]c1C`, with “inactive; multisex inactive; multispecies inactive”.
For the molecule `COc1ccc2nc(S(=O)Cc3ncc(C)c(OC)c3C)[nH]c2c1` (stereo unspecified), the outcome is “active; multisex active”.
In the case of `CN(C)NC(=O)CCC(=O)O`, the outcome is “active; multisite active; multisex active; multispecies active”.
Then `CC1CN(N=O)CC(C)N1C` (stereo unspecified), with “active; multisite active; multisex active; multispecies active”; and `C[C@]12CC[C@H](OS(=O)(=O)O)CC1=CC[C@@H]1[C@@H]2CC[C@]2(C)C(=O)CC[C@@H]12`, with “inactive; multisex inactive”; and `CSCCC(N)C(=O)O` (stereo unspecified), with “inactive; multispecies inactive”.
The result for `O=C1O[C@@H](CN2CCOCC2)CN1/N=C/c1ccc([N+](=O)[O-])o1` reads “active; multisite active”; that for `O=C1CN=C(c2ccccc2)c2cc(Cl)ccc2N1CC1CC1`, “inactive; multisex inactive; multispecies inactive”.
For the molecule `CCN(CC)C(=S)[S-].CCN(CC)C(=S)[S-].[Cd+2]`, the outcome was “inactive; multisex inactive”.
Then `Cn1c(=O)c2[nH]cnc2n(C)c1=O`, with “inactive; multisex inactive; multispecies inactive”; and `CC(=O)C1C(=O)C=C(C)OC1=O` (stereo unspecified), with “inactive; multisex inactive”; and `CC(Cl)(Cl)Cl`, with “inactive; multisex inactive; multispecies inactive”.
Turning to `Cc1ccc([N+](=O)[O-])cc1N`, the outcome is “active; multisite active; multisex active”.
The result for `O=C1CCc2ccccc2O1` reads “active; multisite active; multisex active; multispecies active”; that for `[Cl-].[Cl-].[Sn+2]`, “inactive; multisex inactive; multispecies inactive”.
The result for `O=c1c(O)c(-c2ccc(O)cc2)oc2cc(O)cc(O)c12` reads “inactive; multisex inactive”.
Turning to `Cc1ccc(N=Nc2c(O)c(S(=O)(=O)O)cc3ccc(S(=O)(=O)O)cc23)c(C)c1`, the outcome is “active; multisex active; multispecies active”.
Then `COc1ccc(C(=O)/C(Br)=C\C(=O)O)cc1`, with “active; multisite active; multisex active”; and `CC(C)(C)O`, with “active; multisite active; multisex active; multispecies active”.
The result for `N#CS` reads “inactive; multisex inactive”; that for `Cc1ccc2ncccc2c1`, “inactive; multisex inactive”; that for `N#CC(c1ccccc1)c1ccccc1`, “inactive; multisex inactive”.
In the case of `O=NN(CCCC(F)(F)F)CCCC(F)(F)F`, the outcome is “active; multisite active; multisex active”.
As for `CC1CN(N=O)CC(C)O1` (stereo unspecified), the outcome is “active; multisite active; multisex active”.
Turning to `OCCBr`, the outcome was “active; multisex active”.
Turning to `NN`, the outcome is “active; multisite active; multisex active; multispecies active”.
Then `CC(C)(Oc1ccc(C2CC2(Cl)Cl)cc1)C(=O)O` (stereo unspecified), with “active; multisite active; multisex active; multispecies active”; and `Cn1c(N)nc2ncc(-c3ccccc3)cc21`, with “active; multisite active; multisex active; multispecies active”; and `C/C=C(/C)C(=O)O[C@H]1CCN2CC=C(COC(=O)[C@](O)([C@H](C)OC)C(C)(C)O)[C@H]12`, with “active; multisite active; multisex active”.
Then `CC[N+]([O-])=NC`, with “active; multisite active”.
The result for `O=C1CCCCCN1` reads “inactive; multisex inactive; multispecies inactive”.
For `CC(=O)[O][Sn]([c]1ccccc1)([c]1ccccc1)[c]1ccccc1`, the outcome was “inactive; multisex inactive”.
As to `CNc1ncnc2nc[nH]c12`, the outcome is “inactive; multisex inactive”.
The result for `FC(F)OC(Cl)C(F)(F)F` (stereo unspecified) reads “inactive; multisex inactive”; that for `O=C(O)COc1ccc(Cl)cc1Cl`, “inactive; multisex inactive; multispecies inactive”; that for `CC(C)CCCCCCOC(=O)c1ccccc1C(=O)OCCCCCCC(C)C`, “active; multisite active; multisex active; multispecies active”.
Then `Nc1ccc(Cl)c(N)c1`, with “active; multisite active; multisex active; multispecies active”; and `O=CCBr`, with “inactive; multisex inactive”.
As for `C[C@]12CC[C@@H]3c4ccc(OC(=O)Cc5ccc(N(CCCl)CCCl)cc5)cc4CC[C@H]3[C@@H]1CC[C@@H]2OC(=O)Cc1ccc(N(CCCl)CCCl)cc1`, the outcome was “active; multisite active; multisex active”.
In the case of `Nc1c(Br)cc(Br)c2c1C(=O)c1ccccc1C2=O`, the outcome was “active; multisite active; multisex active; multispecies active”.
Then `COc1ccc(N)cc1N`, with “active; multisite active; multisex active; multispecies active”; and `Cc1ccc(O)c(O)c1`, with “active; multisex active”.
The result for `C[C@]12CC[C@H]3C(=CCc4cc(OS(=O)(=O)O)ccc43)[C@@H]1CCC2=O` reads “inactive; multisex inactive”.
Then `CNNC`, with “active; multisite active; multisex active; multispecies active”; and `CCN(C#N)N=O`, with “active; multisex active”; and `NC(N)=O`, with “inactive; multisex inactive; multispecies inactive”.
`CN(C)C(=S)SC(=S)N(C)C`: the outcome was “inactive; multisex inactive”.
Then `CCOC(=O)C1OC1(C)c1ccccc1` (stereo unspecified), with “inactive; multisex inactive”.
The result for `Nc1cc(Cl)c(N)c(Cl)c1` reads “active; multisex active”; that for `O=NN1CCCC1`, “active; multisite active; multisex active; multispecies active”.
As to `NC(=O)c1cnccn1`, the outcome is “inactive; multisex inactive; multispecies inactive”.
Then `CBr`, with “inactive; multisex inactive; multispecies inactive”; and `CCOP(=S)(OCC)Oc1nc(Cl)c(Cl)cc1Cl`, with “inactive; multisex inactive”.
Then `CC(COc1ccccc1)N(CCCl)Cc1ccccc1` (stereo unspecified), with “active; multisex active; multispecies active”; and `CC(C)NCC(O)COc1ccc(CC(N)=O)cc1` (stereo unspecified), with “inactive; multisex inactive”; and `Cc1ccc(Cc2cnc(NCCSCc3ccc(CN(C)C)o3)[nH]c2=O)cn1`, with “active; multisex active”.

The record behind these values is PubChem BioAssay AID1205 (EPA DSSTox, 2008).
